Reference: US20120255051A1, “HERBICIDE TOLERANT PLANTS” (priority 2009, published 2012)

Tests used:
[1] = tested on: Brassica plants comprising mutant AHAS alleles; assay: Greenhouse pre-planting application (20 g a.i./ha): vigor scores; assay type: in vivo, Brassica napus; details: for vigor score Av, pre-planting (2, 3 and 4 weeks after treatment): 20 g a.i./ha
Protocol: In another experiment, the effect of combining AHAS full knockouts with AHAS missense herbicide tolerant alleles on tolerance to thiencarbazone-methyl pre-planting application and thiencarbazone-methyl post-emergence spraying was tested in the greenhouse. To this end, the Brassica plants identified in Example 1 and 2 were backcrossed two times with an elite parent line, and subsequently selfed twice to obtain homozygous plants (BC2S2). Treatment pre-planting was carried out on the soil just after sowing with a dose of 20 g a.i./ha of thiencarbazone methyl. For assessment of vigor scores, plants were evaluated on a scale of 1 to 9, where 1=dead, 3=poor, 6=some aberrant phenotype and 9=vigorous. The vigor scores are an average of the scores taken at 2, 3 and 4 weeks after treatment. Treatment post-emergence at the first leaf stage was carried out with a dose of 10 g a.i./ha of thiencarbazone-methyl. The vigor scores are an average of the scores taken 1, 2 and 3 weeks after the treatment. The average values (Av) and standard deviations (SD) of the vigor scores are represented in Table 6.

[2] = tested on: Brassica plants comprising mutant AHAS alleles; assay: Greenhouse post-emergence spray test (5 g a.i./ha): survival and plant type rating; assay type: in vivo, Brassica napus; parameters: key to number of surviving plants in plant type 4 / number of surviving plants in plant type 5 / number of surviving plants in plant type 2: 5: normal (corresponding to wildtype unsprayed phenotype); 4: normal height, some side branching, normal leaves; 3: intermediate height, intermediate side branching, normal leaves; 2: short, severe side branching (“bushy”), some leave malformations; 1: short, severe side branching (“bushy”), severe leave malformations; details: 5 g a.i./ha post-emergence
Protocol: The correlation between the presence of missense and/or full knockout AHAS alleles in a Brassica plant grown in the greenhouse and tolerance to thiencarbazone-methyl was determined as follows. Of the Brassica plants identified in Example 1 and 2, crosses were made to obtain plants comprising both mutant AHAS1 and AHAS3 alleles (F1), which were subsequently backcrossed and selfed (BC1S1). Single gene AHAS missense mutants were backcrossed twice (BC2). These BC1S1 (representing all possible genotype combinations), as well as BC2 single AHAS gene mutant plants (50%+/+, 50%+/−), were sown in a greenhouse. Treatment post-emergence at the 1-2 leaf stage was carried out with a dose of 5 g a.i./ha of thiencarbazone-methyl and surviving plants were transplanted to 9 cm pots 10 days after spraying. The plants were evaluated for phenotype (height, side branching and leave morphology) 20 days after transplantation on scale of 5 to 1, where; type 5=normal (corresponding to wildtype unsprayed phenotype); type 4=normal height, some side branching, normal leaves; type 3=intermediate height, intermediate side branching, normal leaves; type 2=short, severe side branching (“bushy”), some leave malformations; type 1=short, severe side branching (“bushy”), severe leave malformations (Table 4).

[3] = BC1S1 HETO108/HETO102, 204 sown, 201 germinated
[4] = BC1S1 HETO108/HETO103, 204 sown, 199 germinated
[5] = BC1S1 HETO108/HETO104, 204 sown, 200 germinated
[6] = BC1S1 HETO112/HETO111, 204 sown, 204 germinated
[7] = BC2 HETO108, 51 sown, 50 germinated
[8] = BC2 HETO111, 51 sown, 49 germinated

Compound: COC(=O)c1csc(C)c1S(=O)(=O)NC(=O)n1nc(OC)n(C)c1=O [thiencarbazone-methyl, methyl 4-[(4,5-dihydro-3-methoxy-4-methyl-5-oxo-1H-1,2,4-triazol-1-yl)carbonylsulfamoyl]-5-methylthiophene-3-carboxylate]
- vigor score Av, pre-planting (2, 3 and 4 weeks after treatment) ([1]; AHAS1 HETO112/HETO112, AHAS3 +/+): 1.4
- vigor score Av, pre-planting (2, 3 and 4 weeks after treatment) ([1]; AHAS1 HETO112/HETO112, AHAS3 HETO111/HETO111): 5.6
- vigor score Av, pre-planting (2, 3 and 4 weeks after treatment) ([1]; Elite parent line treated): 1.8
- thiencarbazone-methyl tolerance of plants homozygous for a missense allele and a full knock-out allele, versus missense allele with other AHAS gene homozygous wild-type ([1]; pre-planting treatment, greenhouse): higher
- number of surviving plants in plant type 1 [2, 3]: 108
- number of surviving plants in plant type 2 [2, 3]: 34
- number of surviving plants in plant type 3 [2, 3]: 21
- number of surviving plants in plant type 4 [2, 3]: 1
- number of surviving plants in plant type 5 [2, 3]: 0
- number of surviving plants transplanted after spraying (trans) [2, 3]: 169
- number of surviving plants in plant type 1 [2, 4]: 88
- number of surviving plants in plant type 2 [2, 4]: 18
- number of surviving plants in plant type 3 [2, 4]: 41
- number of surviving plants in plant type 4 [2, 4]: 4
- number of surviving plants in plant type 5 [2, 4]: 0
- number of surviving plants transplanted after spraying (trans) [2, 4]: 151
- number of surviving plants in plant type 1 [2, 5]: 66
- number of surviving plants in plant type 2 [2, 5]: 18
- number of surviving plants in plant type 3 [2, 5]: 28
- number of surviving plants in plant type 4 [2, 5]: 2
- number of surviving plants transplanted after spraying (trans) [2, 5]: 115
- number of surviving plants in plant type 5 ([2]; BC1S1 HETO108/HETO104, 204 sown, 200 germinated (probably missed during spraying)): 1
- number of surviving plants in plant type 1 [2, 6]: 94
- number of surviving plants in plant type 2 [2, 6]: 23
- number of surviving plants in plant type 3 [2, 6]: 35
- number of surviving plants in plant type 4 [2, 6]: 0
- number of surviving plants in plant type 5 [2, 6]: 0
- number of surviving plants transplanted after spraying (trans) [2, 6]: 152
- number of surviving plants in plant type 1 [2, 7]: 20
- number of surviving plants in plant type 2 [2, 7]: 2
- number of surviving plants in plant type 3 [2, 7]: 0
- number of surviving plants in plant type 4 [2, 7]: 0
- number of surviving plants in plant type 5 [2, 7]: 0
- number of surviving plants transplanted after spraying (trans) [2, 7]: 22
- number of surviving plants in plant type 1 [2, 8]: 22
- number of surviving plants in plant type 2 [2, 8]: 0
- number of surviving plants in plant type 3 [2, 8]: 0
- number of surviving plants in plant type 4 [2, 8]: 0
- number of surviving plants in plant type 5 [2, 8]: 0
- number of surviving plants transplanted after spraying (trans) [2, 8]: 25
- number of surviving plants in plant type 1 ([2]; wt, 51 sown, 51 germinated): 0
- number of surviving plants in plant type 2 ([2]; wt, 51 sown, 51 germinated): 0
- number of surviving plants in plant type 3 ([2]; wt, 51 sown, 51 germinated): 0
- number of surviving plants in plant type 4 ([2]; wt, 51 sown, 51 germinated): 0
- number of surviving plants in plant type 5 ([2]; wt, 51 sown, 51 germinated): 0
- number of surviving plants transplanted after spraying (trans) ([2]; wt, 51 sown, 51 germinated): 0
